Among the data in ChEMBL document CHEMBL1133508, “Syntheses and antimalarial activities of 10-substituted deoxoartemisinins” (2000) are Relative activity values, retold here.

Experiment [1] concerns Plasmodium falciparum. As to the kind of experiment: In vitro activity against chloroquine-resistant, mefloquine-sensitive Plasmodium falciparum W2. The class given is functional.
For experiment [2], the system named is Plasmodium falciparum. As to the kind of experiment: In vitro relative activity against chloroquine-sensitive, mefloquine-resistant Plasmodium falciparum D6. The class given is functional.

As for `CCC(=O)C[C@H]1O[C@@H]2OC3(C)CC[C@H]4[C@H](C)CC[C@@H]([C@H]1C)[C@@]24OO3` (single isomer, unassigned), the Relative activity in experiment [1] was found to be 1.3; in experiment [2], 1.

Turning to `C[C@H]1[C@@H](C2C=CC(=O)O2)O[C@@H]2O[C@]3(C)CC[C@H]4[C@H](C)CC[C@@H]1[C@@]24OO3` (some centres not stated), the Relative activity in experiment [1] was found to be 0.18; in experiment [2], 0.77.

Regarding `CCOC(=O)/C=C/C[C@H]1O[C@@H]2OC3(C)CC[C@H]4[C@H](C)CC[C@@H]([C@H]1C)[C@@]24OO3` (single isomer, unassigned), the Relative activity in experiment [1] is recorded as 1.4; in experiment [2], 1.1.

Turning to `C[C@H]1[C@@H](CC=O)O[C@@H]2OC3(C)CC[C@H]4[C@H](C)CC[C@@H]1[C@@]24OO3` (single isomer, unassigned), the Relative activity in experiment [1] is reported as 1.8; in experiment [2], 3.5.

Turning to `CC(=O)C[C@H]1O[C@@H]2OC3(C)CC[C@H]4[C@H](C)CC[C@@H]([C@H]1C)[C@@]24OO3` (single isomer, unassigned), the Relative activity in experiment [1] came to 1.7; in experiment [2], 2.6.

On to `C[C@H]1[C@@H](C[C@H](O)C(C)(C)C)O[C@@H]2OC3(C)CC[C@H]4[C@H](C)CC[C@@H]1[C@@]24OO3` (single isomer, unassigned), for which the Relative activity in experiment [1] came out at 5.4; in experiment [2], 6.8.

On to `CC(C)[C@H](O)C[C@H]1O[C@@H]2OC3(C)CC[C@H]4[C@H](C)CC[C@@H]([C@H]1C)[C@@]24OO3` (single isomer, unassigned), for which the Relative activity was determined as 2.3 in experiment [1] and 1.4 in experiment [2].

In the case of `CC(C)C(=O)C[C@H]1O[C@@H]2OC3(C)CC[C@H]4[C@H](C)CC[C@@H]([C@H]1C)[C@@]24OO3` (single isomer, unassigned), the values for the Relative activity in experiment [1] and in experiment [2] were 2.1 and 1.8, respectively.

Take `C[C@H]1[C@@H](CC(=O)C(C)(C)C)O[C@@H]2OC3(C)CC[C@H]4[C@H](C)CC[C@@H]1[C@@]24OO3` (single isomer, unassigned): the Relative activity is recorded as 2.1 in experiment [1] and 1.6 in experiment [2].

As for `C[C@H]1[C@@H](C2CCCC(=O)O2)O[C@@H]2OC3(C)CC[C@H]4[C@H](C)CC[C@@H]1[C@@]24OO3` (single isomer, unassigned), the Relative activity in experiment [1] stood at 2.2; in experiment [2], 1.4.

With `CC[C@@H](O)C[C@H]1O[C@@H]2OC3(C)CC[C@H]4[C@H](C)CC[C@@H]([C@H]1C)[C@@]24OO3` (single isomer, unassigned), the Relative activity in experiment [1] was 4.8; in experiment [2], 5.8.

Consider `C[C@H]1[C@@H](C#N)O[C@@H]2OC3(C)CC[C@H]4[C@H](C)CC[C@@H]1[C@@]24OO3` (single isomer, unassigned), for which the Relative activity is recorded as 1.1 in experiment [1] and 1.5 in experiment [2].

Consider `CC(C)[C@@H](O)C[C@H]1O[C@@H]2OC3(C)CC[C@H]4[C@H](C)CC[C@@H]([C@H]1C)[C@@]24OO3` (single isomer, unassigned), for which the Relative activity in experiment [1] was 1.7; in experiment [2], 2.2.

`C[C@H]1[C@@H](C[C@@H](O)C(F)(F)F)O[C@@H]2OC3(C)CC[C@H]4[C@H](C)CC[C@@H]1[C@@]24OO3` (single isomer, unassigned): the figures for the Relative activity in experiment [1] and in experiment [2] were 2.4 and 3.1, respectively.

For the compound `C[C@H]1[C@@H](C[C@H](C)O)O[C@@H]2OC3(C)CC[C@H]4[C@H](C)CC[C@@H]1[C@@]24OO3` (single isomer, unassigned), the Relative activity came to 1 in experiment [1] and 0.98 in experiment [2].

Regarding `C[C@H]1[C@@H](C2CCCC2=O)O[C@@H]2OC3(C)CC[C@H]4[C@H](C)CC[C@@H]1[C@@]24OO3` (single isomer, unassigned), the results for the Relative activity in experiment [1] and in experiment [2] were 1.6 and 0.91, respectively.

With `C[C@H]1[C@@H](C[C@@H](C)O)O[C@@H]2OC3(C)CC[C@H]4[C@H](C)CC[C@@H]1[C@@]24OO3` (single isomer, unassigned), the Relative activity in experiment [1] and in experiment [2] was 1.7 throughout.

As for `CC[C@H](O)C[C@H]1O[C@@H]2OC3(C)CC[C@H]4[C@H](C)CC[C@@H]([C@H]1C)[C@@]24OO3` (single isomer, unassigned), the Relative activity in experiment [1] was 3.6; in experiment [2], 2.2.

As for `C[C@H]1[C@@H](C[C@H](O)C(F)(F)F)O[C@@H]2OC3(C)CC[C@H]4[C@H](C)CC[C@@H]1[C@@]24OO3` (single isomer, unassigned), the Relative activity is 3.1 in experiment [1] and 2.5 in experiment [2].

`C[C@H]1[C@@H](CC(=O)c2ccccc2)O[C@@H]2OC3(C)CC[C@H]4[C@H](C)CC[C@@H]1[C@@]24OO3` (single isomer, unassigned): the Relative activity in experiment [1] is on record as 2.5; in experiment [2], 0.16.

`C[C@H]1[C@@H](C[C@@H](O)C(C)(C)C)O[C@@H]2OC3(C)CC[C@H]4[C@H](C)CC[C@@H]1[C@@]24OO3` (single isomer, unassigned): the Relative activity in experiment [1] amounted to 1; in experiment [2] it was 1.6.
